Data: ChEMBL document CHEMBL2380240, “Discovery, synthesis, selectivity modulation and DMPK characterization of 5-azaspiro[2.4]heptanes as potent orexin receptor antagonists” (Bioorg Med Chem Lett, 2013)

Experiments:
[1] = biological target: T1, Orexin receptor type 2 (Homo sapiens) (UniProt O43614); assay: Antagonist activity at human recombinant OX2 receptor expressed in HEK293 cells assessed as OXB-stimulated intracellular calcium mobilization by FLIPR assay; type: functional, cell-based
T1 sequence (whole entry): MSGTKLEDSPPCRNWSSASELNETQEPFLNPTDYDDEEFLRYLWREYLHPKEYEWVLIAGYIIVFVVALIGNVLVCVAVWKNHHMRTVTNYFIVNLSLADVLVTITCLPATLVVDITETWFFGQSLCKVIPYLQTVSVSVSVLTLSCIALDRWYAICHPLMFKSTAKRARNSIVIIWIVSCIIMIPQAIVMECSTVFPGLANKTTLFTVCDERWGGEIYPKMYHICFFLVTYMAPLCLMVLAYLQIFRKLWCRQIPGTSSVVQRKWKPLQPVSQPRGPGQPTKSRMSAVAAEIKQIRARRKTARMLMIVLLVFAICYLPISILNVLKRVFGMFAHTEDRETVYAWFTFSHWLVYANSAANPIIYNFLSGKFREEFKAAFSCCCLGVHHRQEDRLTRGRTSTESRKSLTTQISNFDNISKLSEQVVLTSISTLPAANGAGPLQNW

CYP2D6 [2] = biological target: T2, CYP2D6 (Homo sapiens, UniProt P10635); assay: Inhibition of human recombinant CYP2D6 at 3 uM by fluorimetric assay; type: ADME
T2 sequence (P10635 whole entry): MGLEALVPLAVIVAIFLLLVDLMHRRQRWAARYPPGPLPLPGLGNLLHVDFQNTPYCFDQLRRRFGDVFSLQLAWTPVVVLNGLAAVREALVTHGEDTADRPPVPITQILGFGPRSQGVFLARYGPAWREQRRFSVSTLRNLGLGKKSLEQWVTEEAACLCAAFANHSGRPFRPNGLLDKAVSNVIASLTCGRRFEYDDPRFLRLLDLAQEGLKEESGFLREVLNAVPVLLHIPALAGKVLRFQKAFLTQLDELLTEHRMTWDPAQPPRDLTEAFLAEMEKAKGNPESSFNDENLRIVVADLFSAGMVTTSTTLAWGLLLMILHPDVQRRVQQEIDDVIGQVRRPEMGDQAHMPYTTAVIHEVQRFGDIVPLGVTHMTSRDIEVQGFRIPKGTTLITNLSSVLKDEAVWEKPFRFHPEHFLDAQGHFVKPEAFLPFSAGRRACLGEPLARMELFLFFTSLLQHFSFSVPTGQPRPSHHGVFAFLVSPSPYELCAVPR

CYP1A2 [3] = biological target: T3, CYP1A2 (Homo sapiens, UniProt P05177); assay: Inhibition of human recombinant CYP1A2 at 3 uM by fluorimetric assay; type: ADME
T3 sequence (P05177 whole entry): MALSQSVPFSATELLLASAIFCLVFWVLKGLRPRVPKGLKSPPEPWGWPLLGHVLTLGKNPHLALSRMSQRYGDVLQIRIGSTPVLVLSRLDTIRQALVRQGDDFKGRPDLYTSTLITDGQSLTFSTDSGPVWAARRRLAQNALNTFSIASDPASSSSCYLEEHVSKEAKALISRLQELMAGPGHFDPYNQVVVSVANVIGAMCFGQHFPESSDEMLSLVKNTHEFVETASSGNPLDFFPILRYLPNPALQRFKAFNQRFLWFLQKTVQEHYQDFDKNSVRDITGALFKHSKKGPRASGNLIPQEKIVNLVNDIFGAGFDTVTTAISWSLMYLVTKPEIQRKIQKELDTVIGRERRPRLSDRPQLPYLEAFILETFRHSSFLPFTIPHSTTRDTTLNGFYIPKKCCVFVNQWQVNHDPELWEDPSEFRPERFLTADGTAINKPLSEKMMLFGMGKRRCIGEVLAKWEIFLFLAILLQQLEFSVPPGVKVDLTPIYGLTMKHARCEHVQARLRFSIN

[4] = biological target: T4, Orexin/Hypocretin receptor type 1 (Homo sapiens) (UniProt O43613); assay: Antagonist activity at human recombinant OX1 receptor expressed in CHO cells assessed as OXA-stimulated intracellular calcium mobilization by FLIPR assay; type: functional, cell-based
T4 sequence (whole entry): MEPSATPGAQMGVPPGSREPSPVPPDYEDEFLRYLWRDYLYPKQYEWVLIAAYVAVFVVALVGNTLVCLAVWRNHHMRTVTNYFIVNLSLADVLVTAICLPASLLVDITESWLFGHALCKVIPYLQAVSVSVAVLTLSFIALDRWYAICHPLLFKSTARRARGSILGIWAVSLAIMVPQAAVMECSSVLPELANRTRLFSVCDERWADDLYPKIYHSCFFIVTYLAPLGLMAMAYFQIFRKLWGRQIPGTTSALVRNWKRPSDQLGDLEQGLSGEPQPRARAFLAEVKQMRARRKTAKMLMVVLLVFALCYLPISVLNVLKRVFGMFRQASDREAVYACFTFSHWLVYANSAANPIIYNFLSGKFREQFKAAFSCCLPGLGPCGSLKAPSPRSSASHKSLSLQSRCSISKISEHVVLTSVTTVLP

CYP2C19 [5] = biological target: T5, CYP2C19 (Homo sapiens, UniProt P33261); assay: Inhibition of human recombinant CYP2C19 at 3 uM by fluorimetric assay; type: ADME
T5 sequence (P33261 whole entry): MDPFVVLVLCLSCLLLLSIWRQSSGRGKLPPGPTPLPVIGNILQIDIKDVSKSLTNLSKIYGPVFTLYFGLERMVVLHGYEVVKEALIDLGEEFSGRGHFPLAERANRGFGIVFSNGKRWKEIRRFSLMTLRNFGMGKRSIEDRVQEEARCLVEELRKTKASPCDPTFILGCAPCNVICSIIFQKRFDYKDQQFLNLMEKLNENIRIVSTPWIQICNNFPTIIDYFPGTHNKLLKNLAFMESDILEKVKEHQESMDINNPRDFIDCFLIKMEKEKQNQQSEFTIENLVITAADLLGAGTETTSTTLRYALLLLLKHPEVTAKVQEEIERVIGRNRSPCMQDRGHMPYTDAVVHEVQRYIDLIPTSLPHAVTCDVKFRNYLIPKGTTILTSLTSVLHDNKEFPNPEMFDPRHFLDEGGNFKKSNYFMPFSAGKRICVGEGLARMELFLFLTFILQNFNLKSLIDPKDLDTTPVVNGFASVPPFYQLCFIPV

CYP2C9 [6] = biological target: T6, CYP2C9 (Homo sapiens, UniProt P11712); assay: Inhibition of human recombinant CYP2C9 at 3 uM by fluorimetric assay; type: ADME
T6 sequence (P11712 whole entry): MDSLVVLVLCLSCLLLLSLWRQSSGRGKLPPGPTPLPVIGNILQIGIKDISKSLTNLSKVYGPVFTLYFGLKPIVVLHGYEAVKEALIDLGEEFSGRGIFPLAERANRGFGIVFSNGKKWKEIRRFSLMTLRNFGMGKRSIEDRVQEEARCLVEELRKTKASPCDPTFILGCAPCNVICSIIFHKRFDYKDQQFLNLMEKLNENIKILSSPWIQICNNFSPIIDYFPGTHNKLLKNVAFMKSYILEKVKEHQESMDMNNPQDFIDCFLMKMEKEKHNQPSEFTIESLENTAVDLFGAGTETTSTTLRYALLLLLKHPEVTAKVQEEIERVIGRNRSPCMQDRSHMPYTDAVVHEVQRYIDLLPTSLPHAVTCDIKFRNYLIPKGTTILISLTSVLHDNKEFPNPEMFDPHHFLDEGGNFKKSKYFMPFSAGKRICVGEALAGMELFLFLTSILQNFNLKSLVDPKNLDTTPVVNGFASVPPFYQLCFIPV

CYP3A4 [7] = biological target: T7, CYP3A4 (Homo sapiens, UniProt P08684); assay: Inhibition of human recombinant CYP3A4 using DBF as substrate at 3 uM by fluorimetric assay; type: ADME; conditions: recombinant CYP3A4, probe DBF
T7 sequence (P08684 whole entry): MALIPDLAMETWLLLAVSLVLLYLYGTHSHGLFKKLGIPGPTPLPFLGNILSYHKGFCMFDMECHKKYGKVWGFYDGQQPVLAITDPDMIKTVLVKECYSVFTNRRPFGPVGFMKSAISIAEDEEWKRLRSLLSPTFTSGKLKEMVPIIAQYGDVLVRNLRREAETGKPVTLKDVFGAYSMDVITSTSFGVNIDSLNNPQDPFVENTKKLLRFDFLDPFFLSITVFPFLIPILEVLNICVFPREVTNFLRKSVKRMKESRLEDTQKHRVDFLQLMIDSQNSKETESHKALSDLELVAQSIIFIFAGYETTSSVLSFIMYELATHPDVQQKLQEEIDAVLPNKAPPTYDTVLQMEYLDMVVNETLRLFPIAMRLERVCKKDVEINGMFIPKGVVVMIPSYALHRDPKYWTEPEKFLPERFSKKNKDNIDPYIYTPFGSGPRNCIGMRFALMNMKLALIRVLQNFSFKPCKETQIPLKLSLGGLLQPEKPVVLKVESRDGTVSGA

CYP3A4 [8] = biological target: T7, CYP3A4; assay: Inhibition of human recombinant CYP3A4 using BFC as substrate at 3 uM by fluorimetric assay; type: ADME; conditions: recombinant CYP3A4, probe BFC
CYP3A4 [9] = biological target: T7, CYP3A4; assay: Inhibition of human recombinant CYP3A4 using BFC as substrate at 1 uM by fluorimetric assay; type: ADME; conditions: recombinant CYP3A4, probe BFC
CYP1A2 [10] = biological target: T3, CYP1A2; assay: Inhibition of human recombinant CYP1A2 at 1 uM by fluorimetric assay; type: ADME
CYP3A4 [11] = biological target: T7, CYP3A4; assay: Inhibition of human recombinant CYP3A4 using DBF as substrate at 1 uM by fluorimetric assay; type: ADME; conditions: recombinant CYP3A4, probe DBF
CYP2C19 [12] = biological target: T5, CYP2C19; assay: Inhibition of human recombinant CYP2C19 at 1 uM by fluorimetric assay; type: ADME
CYP2D6 [13] = biological target: T2, CYP2D6; assay: Inhibition of human recombinant CYP2D6 at 1 uM by fluorimetric assay; type: ADME
CYP2C9 [14] = biological target: T6, CYP2C9; assay: Inhibition of human recombinant CYP2C9 at 1 uM by fluorimetric assay; type: ADME
[15] = Volume of distribution at steady state in rat; type: ADME, organism-based; conditions: in vivo, read-out: Vdss
[16] = Plasma clearance in rat at 1 mg/kg, iv; type: ADME, organism-based; parameters: dose 1 mg/kg, route intravenous
[17] = Ratio of drug uptake from rat brain to plasma at 1 mg/kg, iv after 1 hr; type: ADME, organism-based; parameters: dose 1 mg/kg, route intravenous; conditions: read-out: BPR

SMILES | pKb [1] | inhibition at 3 µM (CYP2D6 [2]) [%] | inhibition at 3 µM (CYP1A2 [3]) [%] | pKb [4] | inhibition at 3 µM (CYP2C19 [5]) [%] | inhibition at 3 µM (CYP2C9 [6]) [%] | inhibition at 3 µM (CYP3A4 [7]) [%] | inhibition at 3 µM (CYP3A4 [8]) [%] | also measured
O=C(c1nc(OC(F)(F)F)ccc1-c1ncccn1)N1CC2(CC2)C[C@H]1CNc1ccc(C(F)(F)F)cn1 | 6.9 | < 58 | < 58 | 7 | < 58 | < 58 | < 58 | < 58 | 
Cc1ccc(-c2ncccn2)c(C(=O)N2CC3(CC3)C[C@H]2CNc2cc(C#N)ccn2)n1 |  |  |  |  |  |  |  |  | inhibition at 1 µM (CYP3A4 [9]): < 17%; inhibition at 1 µM (CYP1A2 [10]): < 17%; inhibition at 1 µM (CYP3A4 [11]): < 17%; inhibition at 1 µM (CYP2C19 [12]): < 17%; inhibition at 1 µM (CYP2D6 [13]): < 17%; inhibition at 1 µM (CYP2C9 [14]): < 17%
Cc1ccc(-c2ncccn2)c(C(=O)N2CC3(CC3)C[C@H]2CNc2cc(C(F)(F)F)ccn2)c1 | 7.8 |  |  | 7.3 |  |  |  |  | inhibition at 1 µM (CYP3A4 [9]): < 72%; inhibition at 1 µM (CYP1A2 [10]): < 72%; inhibition at 1 µM (CYP3A4 [11]): < 72%; inhibition at 1 µM (CYP2C19 [12]): < 72%; inhibition at 1 µM (CYP2D6 [13]): < 72%; inhibition at 1 µM (CYP2C9 [14]): < 72%
Cc1cccc(NC[C@@H]2CC3(CC3)CN2C(=O)c2nc(C)sc2-c2ccccc2)n1 | 7.6 |  |  | 7.3 |  |  |  |  | 
Cc1nc(C(=O)N2CC3(CC3)C[C@H]2CNc2ccc(Cl)cn2)c(-c2ccccc2)s1 | 7.1 |  |  | 8.3 |  |  |  |  | 
Cc1ccc(-n2nccn2)c(C(=O)N2CCC3(CC3)C[C@H]2CNc2cccc(C)n2)c1 | < 5 |  |  | 8.2 |  |  |  |  | 
N#Cc1ccc(-c2ncccn2)c(C(=O)N2CC3(CC3)C[C@H]2CNc2ccc(C(F)(F)F)cn2)c1 | 8.1 | < 32 | < 32 | 8 | < 32 | < 32 | < 32 | < 32 | 
Cc1ccc(-c2nccs2)c(C(=O)N2CC3(CC3)C[C@H]2CNc2ccc(C(F)(F)F)cn2)n1 | 8 | < 89 | < 89 | 8.6 | < 89 | < 89 | < 89 | < 89 | 
O=C(c1cc(Cl)ccc1-c1ncccn1)N1CC2(CC2)C[C@H]1CNc1cc(C(F)(F)F)ccn1 | 7.1 |  |  | 8.1 |  |  |  |  | inhibition at 1 µM (CYP3A4 [9]): < 57%; inhibition at 1 µM (CYP1A2 [10]): < 57%; inhibition at 1 µM (CYP3A4 [11]): < 57%; inhibition at 1 µM (CYP2C19 [12]): < 57%; inhibition at 1 µM (CYP2D6 [13]): < 57%; inhibition at 1 µM (CYP2C9 [14]): < 57%
Cc1cc(C(F)(F)F)cc(NC[C@@H]2CC3(CC3)CN2C(=O)c2nc(C)sc2-c2ccccc2)n1 | 8.6 |  |  | 7.8 |  |  |  |  | inhibition at 1 µM (CYP3A4 [9]): < 69%; inhibition at 1 µM (CYP1A2 [10]): < 69%; inhibition at 1 µM (CYP3A4 [11]): < 69%; inhibition at 1 µM (CYP2C19 [12]): < 69%; inhibition at 1 µM (CYP2D6 [13]): < 69%; inhibition at 1 µM (CYP2C9 [14]): < 69%
Cc1ccc(OCc2ccccc2)c(C(=O)N2CC3(CC3)C[C@H]2CNc2ccc(C(F)(F)F)cn2)n1 | 8.6 | < 71 | < 71 | 8.6 | < 71 | < 71 | < 71 | < 71 | 
O=C(c1nc(C(F)(F)F)ccc1-c1ncccn1)N1CC2(CC2)C[C@H]1CNc1ccc(C(F)(F)F)cn1 | 5 | < 39 | < 39 | 6.7 | < 39 | < 39 | < 39 | < 39 | 
Cc1cnn(-c2ccc(C)nc2C(=O)N2CC3(CC3)C[C@H]2CNc2ccc(C(F)(F)F)cn2)c1 | 8.3 | < 85 | < 85 | 8.9 | < 85 | < 85 | < 85 | < 85 | 
Cc1nc(C(=O)N2CCC3(CC3)C[C@H]2CNc2ccc(C(F)(F)F)cn2)c(-c2ccccc2)s1 | < 5 |  |  | 7.7 |  |  |  |  | 
Cc1ccc(-n2nccn2)c(C(=O)N2CC3(CC3)C[C@H]2CNc2ccc(Cl)cn2)c1 | < 5 |  |  | 8.1 |  |  |  |  | 
Cc1nc(C(=O)N2CC3(CC3)C[C@H]2CNc2cc(C(F)(F)F)ccn2)c(-c2ccccc2)s1 | 8.5 |  |  | 8.2 |  |  |  |  | inhibition at 1 µM (CYP3A4 [9]): < 55%; inhibition at 1 µM (CYP1A2 [10]): < 55%; inhibition at 1 µM (CYP3A4 [11]): < 55%; inhibition at 1 µM (CYP2C19 [12]): < 55%; inhibition at 1 µM (CYP2D6 [13]): < 55%; inhibition at 1 µM (CYP2C9 [14]): < 55%
Cc1ccc(-n2nccn2)c(C(=O)N2CC3(CC3)C[C@H]2CNc2cccc(C)n2)c1 | < 5 |  |  | 7.1 |  |  |  |  | inhibition at 1 µM (CYP3A4 [9]): < 34%; inhibition at 1 µM (CYP1A2 [10]): < 34%; inhibition at 1 µM (CYP3A4 [11]): < 34%; inhibition at 1 µM (CYP2C19 [12]): < 34%; Vd [15]: 0.48 L/kg; clearance [16]: 33.1 mL/min/kg; Kp at 1 h [17]: 0.2; inhibition at 1 µM (CYP2D6 [13]): < 34%; inhibition at 1 µM (CYP2C9 [14]): < 34%
Cc1ccnc(NC[C@@H]2CC3(CC3)CN2C(=O)c2nc(C)sc2-c2ccccc2)n1 | 7 |  |  | 6.1 |  |  |  |  | 
Cc1ccc(-c2ncccn2)c(C(=O)N2CCC3(CC3)C[C@H]2CNc2ccc(Cl)cn2)c1 | < 5 |  |  | 7.6 |  |  |  |  | 
Cc1nc(C(=O)N2CC3(CC3)C[C@H]2CNc2ncc(Cl)cn2)c(-c2ccccc2)s1 | 6.8 |  |  | 6.8 |  |  |  |  | 
CS(=O)(=O)c1ccc(-c2ccccc2)c(C(=O)N2CC3(CC3)C[C@H]2CNc2ccc(C(F)(F)F)cn2)c1 | 7.1 | < 41 | < 41 | 6.7 | < 41 | < 41 | < 41 | < 41 | 
Cc1ccc(-c2ncccn2)c(C(=O)N2CC3(CC3)C[C@H]2CNc2ccc(C(F)(F)F)cn2)c1 | 6.6 |  |  | 8.7 |  |  |  |  | 
O=C(c1cc(Cl)ccc1-c1ncccn1)N1CC2(CC2)C[C@H]1CNc1ccc(C(F)(F)F)cn1 | 7.2 | < 22 | < 22 | 8.1 | < 22 | < 22 | < 22 | < 22 | 
Cc1nc(C(=O)N2CCC3(CC3)C[C@H]2CNc2ccc(Cl)cn2)c(-c2ccccc2)s1 | < 5 |  |  | 7.9 |  |  |  |  | 
O=C(c1ncccc1-c1ncccn1)N1CC2(CC2)C[C@H]1CNc1ccc(C(F)(F)F)cn1 | 5 | < 47 | < 47 | 7.7 | < 47 | < 47 | < 47 | < 47 | 
Cc1ccc(-n2nccn2)c(C(=O)N2CCC3(CC3)C[C@H]2CNc2ccc(Cl)cn2)c1 | < 5 |  |  | 7.5 |  |  |  |  | 
